From US9718812B2, “Substituted thiazole or oxazole P2X7 receptor antagonists” (Axxam S.P.A., priority 2014, dated 2017) come the findings set out here.

Common to all, as to format: cell-based
One assay concerns the target P2X7 receptor (hP2X7) (Homo sapiens (Human), UniProt Q99572). Briefly: Screen Quest Fluo-8 No Wash Calcium Assay (Bz-ATP-induced Ca2+ influx, FLIPR TETRA). As to conditions: HEK-293 cells stably transfected with P2X7 receptor, Fluo-8 calcium, Low Divalent Cation Assay Buffer. The procedure, abridged: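 Read-out is Fluo-8 NW fluorescence recorded over a 5-min kinetic window, reporting Bz-ATP-evoked Ca2+ entry. Cells: HEK-293 stably expressing the P2X7 receptor, dye-loaded for 1 h at room temperature before compound injection.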

Assay [1] addresses T1, P2X7 receptor (Homo sapiens (Human), UniProt Q99572). Briefly: YO-PRO-1 Uptake Assay (large pore form, Bz-ATP stimulated). The conditions noted are these: HEK-293 cells stably transfected with P2X7 receptor; Bz-ATP EC80 (30 μM); 5 μM YO-PRO-1. The text has this: YO-PRO®-1 is a fluorescent DNA-binding dye with a MW of 374 Da (Molecular Probes®, cat. Y3603). This method is based upon the presumed ability of YO-PRO®-1 to enter through the dilated or “large pore form” of P2X7 receptor and to bind to intracellular DNA whereupon it increases many fold its fluorescence intensity. The dye has an absorption spectrum compatible with excitation at 488 nm by argon laser sources and its emission wavelength is in the range of 515-575 nm. The aim of this assay was to validate the interaction of antagonists with P2X7 receptor using an alternative readout to Ca^2+-sensitive fluorescent dyes.
HEK-293 cells stably transfected with P2X7 receptor were seeded overnight in growth medium at 20,000 cells/well in 384-well plate. 24 hours later, the medium was removed, the cells were washed with Low Divalent Cation Assay Buffer (0.3 mM Ca2+ and 0 mM Mg2+) and then pre-loaded with 20 μL/w of 5 μM YO-PRO®-1 dye. […] fluorescence measurement immediately started. Then, 10 μL/w of test compounds and reference antagonist A438079 at 3×-concentration were injected with the […] and the kinetic response over a period of five minutes was monitored. A second injection of 10 μL/w of 3× Bz-ATP EC80 (30 μM) was performed with the […] and the signal of the emitted fluorescence was recorded for additional 60 minutes. All the experiment was carried out with a Low Divalent Cation Assay Buffer (0.3 mM Ca^2+ and 0 mM Mg^2+).
The effect of the test compounds was measured as percent inhibition vs the reference antagonist and IC50 values were calculated accordingly.

Assay [2] concerns the target T1, P2X7 receptor. Briefly: human P2X7 channel assay by automated patch-clamp (QPatch 16X). The conditions noted are these: HEK-293 cells expressing P2X7 channels, 100 microM BzATP, held at -80 mV, read-out: hP2X7 (IC50; nM). The protocol: In order to directly monitor the block of P2X7 channel, an electrophysiological assay was developed and implemented on the QPatch 16X automated electrophysiology instrument.
HEK-293 cells expressing the P2X7 channels were cultured in modified EMEM.
72 hours before experiment, 5 million cells were seeded onto T225 flasks. Just before the experiment cells were washed twice, detached from the flask with trypsin-EDTA, re-suspended in the suspension solution and placed on the QPatch 16x.
The compounds (20 mM in a 100% DMSO) stored at −20° C. were prepared the day of the experiment (a first dilution 1:20 in 100% DMSO to prepare a 1 mM stock solution, then a 1 microM solution in external solution+a serial dilution 1:10).
The standard whole-cell voltage clamp experiments were performed at room temperature. For these experiments the multihole technology was used and the data were sampled at 2 KHz.
The intracellular solution contained (mM) 135 CsF, 10 NaCl, 1 EGTA, 10 HEPES, (pH 7.2 with CsOH) whereas the extracellular contained (mM) 145 NaCl, 4 KCl, 0.5 MgCl2, 1 CaCl2, 10 HEPES, 10 Glc (pH 7.4 with NaOH).
After establishment of the seal and the passage in the whole cell configuration, the cells were held at −80 mV. The P2XR7 current was evoked by applying 100 microM of BzATP alone (4 times) and then in the presence increasing concentrations of the compound under investigation (1, 10, 100 and 1000 nM).
The pre-incubation periods 5 to 8 contain increasing concentrations of the compound of interest (1, 10, 100 and 1000 nM), as illustrated in Figure (application protocol).
The maximal inward current evoked by BzATP in absence or presence of increasing concentrations of the compounds under investigation was measured and normalized.
Y: normalized response, 100% down to 0%, decreasing as X increases.
Log IC50: same log units as X
HillSlope: slope factor or HS, unitless

Chain of P2X7 receptor (hP2X7) (Q99572 whole entry): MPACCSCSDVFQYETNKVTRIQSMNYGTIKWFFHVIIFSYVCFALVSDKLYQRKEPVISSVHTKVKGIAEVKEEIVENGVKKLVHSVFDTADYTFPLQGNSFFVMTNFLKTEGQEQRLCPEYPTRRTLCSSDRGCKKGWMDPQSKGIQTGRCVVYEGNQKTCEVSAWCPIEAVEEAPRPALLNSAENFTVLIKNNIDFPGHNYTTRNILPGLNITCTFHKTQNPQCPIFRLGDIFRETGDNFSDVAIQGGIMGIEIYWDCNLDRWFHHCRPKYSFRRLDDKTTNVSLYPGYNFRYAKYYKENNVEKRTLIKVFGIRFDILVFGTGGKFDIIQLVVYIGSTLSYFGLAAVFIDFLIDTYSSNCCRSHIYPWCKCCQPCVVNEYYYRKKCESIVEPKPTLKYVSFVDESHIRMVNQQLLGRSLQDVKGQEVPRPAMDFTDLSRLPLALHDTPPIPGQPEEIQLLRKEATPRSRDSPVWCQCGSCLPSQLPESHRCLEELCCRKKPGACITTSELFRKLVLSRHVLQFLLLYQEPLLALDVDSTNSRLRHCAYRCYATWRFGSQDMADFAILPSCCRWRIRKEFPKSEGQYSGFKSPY
T1 sequence (Q99572 whole entry): as above

For `Cc1ncc(C(CNC(=O)c2cc(-c3ncc(F)cn3)ccc2Cl)N2CCC(F)(F)CC2)s1` (racemic) [Compound 61, 2-chloro-N-[2-(4,4-difluoropiperidin-1-yl)-2-(2-methyl-1,3-thiazol-5-yl)ethyl]-5-(5-fluoropyrimidin-2-yl)benzamide], the IC50 at P2X7 receptor (hP2X7) was 280 nM; at P2X7 receptor [1], 124 nM; at P2X7 receptor [2], 56.3 nM.

Turning to `Cc1ncc(C(CNC(=O)c2cc(-c3ncc(F)cn3)ccc2Cl)N2CCC(F)(F)CC2)s1` (single isomer, unassigned; (+)) [Compound 127, (+)-2-chloro-N-[2-(4,4-difluoro-piperidin-1-yl)-2-(2-methylthiazol-5-yl)ethyl]-5-(5-fluoropyrimidin-2-yl)benzamide], the IC50 at P2X7 receptor (hP2X7) came to 73 nM; against P2X7 receptor [1], 22 nM; at P2X7 receptor [2] it was 65.7 nM.

Turning to `Cc1cccc(C)c1C(=O)NCC(c1cncs1)N1CCC(F)(F)CC1` (stereo not shown) [Compound 14, N-[2-(4,4-difluoropiperidin-1-yl)-2-(1,3-thiazol-5-yl)ethyl]-2,6-dimethylbenzamide], the IC50 at P2X7 receptor (hP2X7) amounted to 27 nM; on P2X7 receptor [1], 24 nM; at P2X7 receptor [2] it was 22.7 nM.

For the compound `Cc1ncsc1C(CNC(=O)c1c(F)cccc1Cl)N1CCc2ccccc2C1` (stereo not shown) [Compound 29, 2-chloro-6-fluoro-N-[2-(4-methyl-1,3-thiazol-5-yl)-2-(1,2,3,4-tetrahydroisoquinolin-2-yl)ethyl]benzamide], the IC50 on P2X7 receptor (hP2X7) is 130 nM; against P2X7 receptor [1] it was 90 nM; at P2X7 receptor [2], 36.1 nM.

Regarding `Cc1ncsc1C(CNC(=O)c1c(F)cccc1Cl)N1CCOCC1` (stereo not shown) [Compound 35, 2-chloro-6-fluoro-N-[2-(4-methyl-1,3-thiazol-5-yl)-2-(morpholin-4-yl)ethyl]benzamide], the IC50 on P2X7 receptor (hP2X7) came to 469 nM; at P2X7 receptor [1] it was 4080 nM; on P2X7 receptor [2], 947 nM.

In the case of `Cc1ncc(C(CNC(=O)c2c(C)cccc2Cl)N2CCC(F)(F)CC2)s1` (stereo not shown) [Compound 39, 2-chloro-N-[2-(4,4-difluoropiperidin-1-yl)-2-(2-methyl-1,3-thiazol-5-yl)ethyl]-6-methylbenzamide], the IC50 came to 28 nM on P2X7 receptor (hP2X7), 18 nM at P2X7 receptor [1] and 61.9 nM on P2X7 receptor [2].

Take `O=C(NCC(c1cnco1)N1CCC(F)(F)CC1)c1cc(-c2ncc(F)cn2)ccc1Cl` (stereo not shown) [Compound 47, 2-chloro-N-[2-(4,4-difluoropiperidin-1-yl)-2-(1,3-oxazol-5-yl)ethyl]-5-(5-fluoropyrimidin-2-yl)benzamide]: the IC50 on P2X7 receptor (hP2X7) amounted to 43 nM; against P2X7 receptor [1] it was 36 nM; at P2X7 receptor [2], 33.9 nM.

Take `Cc1ncsc1C(CN(C)C(=O)c1cc(-c2ncc(F)cn2)ccc1Cl)N1CCC(F)(F)CC1` (stereo not shown) [Compound 77, 2-chloro-N-[2-(4,4-difluoropiperidin-1-yl)-2-(4-methyl-1,3-thiazol-5-yl)ethyl]-5-(5-fluoropyrimidin-2-yl)-N-]: the half-inhibitory concentration (IC50) was 1760 nM on P2X7 receptor (hP2X7) and 183 nM on P2X7 receptor [2].

`O=C(NCC(c1scnc1C(F)F)N1CCC(F)(F)CC1)c1c(F)cccc1Cl` (stereo not shown) [Compound 95, 2-chloro-N-{2-[4-(difluoromethyl)-1,3-thiazol-5-yl]-2-(4,4-difluoropiperidin-1-yl)ethyl}-6-fluorobenzamide]: the IC50 worked out at 54 nM on P2X7 receptor (hP2X7) and 82 nM against P2X7 receptor [1].

Consider `Cc1ncsc1C(CNC(=O)c1cccc2ncccc12)N1CCOC(c2ccc(F)cc2F)C1` (stereo not shown) [Compound 99, N-{2-[2-(2,4-difluorophenyl)morpholin-4-yl]-2-(4-methyl-1,3-thiazol-5-yl)ethyl}quinoline-5-carboxamide], for which the IC50 is 32 nM at P2X7 receptor (hP2X7) and 79 nM on P2X7 receptor [1].

As for `Cc1cccc(Cl)c1C(=O)NCC(c1scnc1C)N1CCOC(c2ccc(F)cc2F)C1` (stereo not shown) [Compound 100, 2-chloro-N-{2-[2-(2,4-difluorophenyl)morpholin-4-yl]-2-(4-methyl-1,3-thiazol-5-yl)ethyl}-6-methylbenzamide], the results for the IC50 on P2X7 receptor (hP2X7) and against P2X7 receptor [1] were 68 nM and 72 nM, respectively.

On to `Cc1cccc(Cl)c1C(=O)NCC(c1scnc1C)N1CCOC(c2ccc(F)cc2F)C1` (stereo not shown) [Compound 101, 2-chloro-N-{2-[2-(2,4-difluorophenyl)morpholin-4-yl]-2-(4-methyl-1,3-thiazol-5-yl)ethyl}-6-methylbenzamide], for which the IC50 stood at 114 nM at P2X7 receptor (hP2X7) and 42 nM on P2X7 receptor [1].

As to `O=C(NCC(c1cnc(C2CCC2)s1)N1CCC(F)(F)CC1)c1cccc2ncccc12` (stereo not shown) [Compound 105, N-[2-(2-cyclobutyl-1,3-thiazol-5-yl)-2-(4,4-difluoropiperidin-1-yl)ethyl]quinoline-5-carboxamide], the concentration for half-maximal inhibition (IC50) on P2X7 receptor (hP2X7) worked out at 292 nM; against P2X7 receptor [1] it was 135 nM.

On to `O=C(NCC(c1cnc(C2CCC2)s1)N1CCC(F)(F)CC1)c1cc(-c2ncc(F)cn2)ccc1F` (stereo not shown) [Compound 106, N-[2-(2-cyclobutyl-1,3-thiazol-5-yl)-2-(4,4-difluoropiperidin-1-yl)ethyl]-2-fluoro-5-(5-fluoropyrimidin-2-yl)benzamide], for which the IC50 was found to be 1240 nM at P2X7 receptor (hP2X7) and 807 nM against P2X7 receptor [1].

Turning to `CCCc1ncc(C(CNC(=O)c2cc(-c3ncc(F)cn3)ccc2Cl)N2CCC(F)(F)CC2)s1` (stereo not shown) [Compound 107, 2-chloro-N-[2-(4,4-difluoropiperidin-1-yl)-2-(2-propyl-1,3-thiazol-5-yl)ethyl]-5-(5-fluoropyrimidin-2-yl)benzamide], the IC50 came to 631 nM at P2X7 receptor (hP2X7) and 158 nM against P2X7 receptor [1].

Take `CCCc1ncc(C(CNC(=O)c2cccc3ncccc23)N2CCC(F)(F)CC2)s1` (stereo not shown) [Compound 108, N-[2-(4,4-difluoropiperidin-1-yl)-2-(2-propyl-1,3-thiazol-5-yl)ethyl]quinoline-5-carboxamide]: the IC50 was 199 nM at P2X7 receptor (hP2X7) and 77 nM on P2X7 receptor [1].

For `CCCc1ncc(C(CNC(=O)c2c(F)cccc2Cl)N2CCC(F)(F)CC2)s1` (stereo not shown) [Compound 109, 2-chloro-N-[2-(4,4-difluoropiperidin-1-yl)-2-(2-propyl-1,3-thiazol-5-yl)ethyl]-6-fluorobenzamide], the IC50 at P2X7 receptor (hP2X7) turned out to be 78 nM; at P2X7 receptor [1], 50 nM.

For `O=C(NCC(c1cnc(C2CCC2)s1)N1CCC(F)(F)CC1)c1c(F)cccc1Cl` (stereo not shown) [Compound 110, 2-chloro-N-[2-(2-cyclobutyl-1,3-thiazol-5-yl)-2-(4,4-difluoropiperidin-1-yl)ethyl]-6-fluorobenzamide], the IC50 was 119 nM at P2X7 receptor (hP2X7) and 46 nM at P2X7 receptor [1].

Turning to `O=C(NCC(c1cnc(C2CCC2)s1)N1CCC(F)(F)CC1)c1cc(-c2ncc(F)cn2)ccc1Cl` (stereo not shown) [Compound 111], the IC50 at P2X7 receptor (hP2X7) came to 1020 nM; against P2X7 receptor [1], 326 nM.

With `O=C(NCC(c1cnc(CO)s1)N1CCC(F)(F)CC1)c1cc(-c2ncc(F)cn2)ccc1Cl` (stereo not shown) [Compound 112], the IC50 at P2X7 receptor (hP2X7) is 119 nM; at P2X7 receptor [1], 36 nM.

`O=C(NCC(c1cnc(C2CCC(F)(F)CC2)s1)N1CCOCC1)c1c(F)cccc1Cl` (stereo not shown) [Compound 116, 2-chloro-N-{2-[2-(4,4-difluorocyclohexyl)-1,3-thiazol-5-yl]-2-(morpholin-4-yl)ethyl}-6-fluorobenzamide]: the IC50 on P2X7 receptor (hP2X7) was 60 nM; on P2X7 receptor [1], 41 nM.
